The text below walks through data of patent US12433903B2 (priority 2021, dated 2025).

The test system of one data set is PTZ-induced seizure. As to the kind of experiment: PTZ-induced epilepsy (seizure) mouse model. In kind it is in vivo. Conditions: 100 mg/kg IP, CBD 60 minutes, Compound 3 30 minutes prior to PTZ 80 mg/kg; for Survival Effects: mortality rate compared to the vehicle/PTZ group: 30 minute observation. The source says:
Mouse models using GABAa receptor antagonist Pentylenetetrazol (PTZ) are well defined and used as a standard for the identification of potential anticonvulsants to treat generalized clonic seizures (Loscher et al., 1991 Epilepsy Res 8:171-189). The purpose of this study was to evaluate and compare CBD to test article Compound 3, on their therapeutic effects in a mouse model of PTZ-induced seizure. To match up test article plasma concentration time max (Tmax) with the PTZ induced seizures; test articles were administered at 60 minutes and 30 minutes prior to PTZ administration respectively. Vehicle used for treatment groups was 10% EtOH/10% Tween 80/80% Saline.
Mice were acclimated to the procedure room for at least 30 minutes. Pentylenetetrazole (PTZ; Sigma Aldrich) was formulated in water to a concentration of 16 mg/mL. Injections of PTZ were made at a volume of 5 mL/kg to produce a final dose of 80 mg/kg.
A 30-minute maximum latency to seizure was imposed. • Clinical behavior was scored using the following adapted Racine scale: • Score 0, no seizures observed • Score 1, Behavioral arrest (freezing, fixed gaze, staring), vibrissae twitching, mouth or facial clonus • Score 2, Pop or jump, straub tail, foot splay, head nodding • Score 3, Forelimb clonus, extended forelimbs, multiple pops or jerks • Score 4, Rearing and bilateral forelimb clonus, Running and running/bouncing • Score 5, All limb clonus, rearing and falling (stay fallen on rear side) • Score 6, Tonic hindlimb extensions, cardiac arrest
Behavior was scored by an observer blind to treatment. The highest score reached during every 5 minute period during the 30 minutes after PTZ was administered was recorded. Additionally, the percent tonic-clonic (number of animals progressing to the highest seizure score), and percent mortality was also calculated.

The nature of data set [1]: PK and Tmax after intraperitoneal administration. In kind it is in vivo. Conditions: male C57BL/6 mice; for Tmax: mouse, in vivo. The source says: The purpose of this study was to determine the pharmacokinetics and time of maximum plasma (Tmax) of the test articles (TA) CBD and Compound 3 following intraperitoneal (IP) administration to male C57BL/6 mice. This method of TA delivery, dose and mouse strain was to be used in a subsequent Pentylenetetrazol (PTZ) induced seizure model for the evaluation of the TA's for anti-epileptic activity.

Data set [2] concerns indomethacin induced intestinal injury. Nature of the data set: Indomethacin-induced Crohn's disease in rats. In kind it is in vivo. The method, then:
The objective of this study was to determine the efficacy of Compound 1 and Compound 2 in a model of Crohn's disease (indomethacin induced intestinal injury) in rats.
The study design was identical for Compound 1 and Compound 2. On study day -3, rats were weighed and distributed into treatment groups based on body weight.
On study day 0, treatment was initiated and continue as indicated in the Study Design Tables below. Groups 2-6 received a subcutaneous injection of indomethacin (9 mg/kg, 1 ml/kg) in 5% sodium bicarbonate (Sterile Water). On study day 1, Groups 2-6 received a second subcutaneous injection of indomethacin (8 mg/kg, 1 ml/kg) in 5% sodium bicarbonate (Sterile Water). Live phase sample & data collection specifics are outlined below. On study day 4, animals will be euthanized, a section of the small intestine will be removed and weighed. Further necropsy sample and data collection is specified below. Overall efficacy of test articles will be based on body weight, small intestine weight (10 cm), small intestine gross score, and histopathology
At necropsy, the small intestines were evaluated visually and given a gross score according to the following criteria: 0=Normal. 0.5=Very Minimal thickening, multifocal in area at risk. 1=Minimal thickening, fairly diffuse in area at risk. 2=Mild to moderate small intestinal/mesenteric thickening throughout area at risk. 3=Moderate thickening with 1 or more definite adhesions that would be easy to separate. 4=Marked thickening with numerous hard to separate adhesions. 5=Severe intestinal lesion resulting in death.
Preserved 9-cm sections of small intestine were trimmed into 6 transverse sections collected at approximately equal intervals along the […] of the intestine, without bias toward lesion presence or absence. These trimmed sections were processed through graded alcohols and a clearing agent, infiltrated and embedded in paraffin, sectioned, and stained with hematoxylin and eosin (H&E).
Small intestine sections from all animals were examined microscopically by a board-certified veterinary pathologist, and observations were entered into a computer-assisted data retrieval system. Cross sections of small intestine were scored for inflammation and necrosis using the following criteria:
The area at risk for development of this lesion is generally approximately 30% of the total area of a cross section of small intestine where the mesentery attaches.
Inflammation is localized to the mesentery and intestinal area at risk for necrosis with slight extension on either side of it. […] In this case, inflammation is scored based on overall severity ranging from 0.5 (very minimal) to 5 (severe) without regard for the extent of necrosis. The mean score for necrosis and inflammation was calculated for each animal and these mean scores were then summed to arrive at a total score. Each section also has a measurement of total width of mucosal necrosis.

A short description of data set [3]: PK study after oral (PO) or intraperitoneal (IP) administration. In kind it is in vivo, male Sprague Dawley rats. Conditions: CBG 30 mg/kg PO or IP; Compound 1 31.5 mg/kg PO; Compound 2 32.7 mg/kg PO. The method, then: This study evaluated the pharmacokinetics of (E)-2-(3,7-dimethylocta-2,6-dien-1-yl)-3-methoxy-5-pentylphenol (1) and (E)-2-(3,7-dimethylocta-2,6-dien-1-yl)-1,3-dimethoxy-5-pentylbenzene (2) following oral (PO) or intraperitoneal (IP) administration to male Sprague Dawley rats.
For the oral formulation the test article was added to the appropriate amount of Maisine and stirred until uniform. Next Labrasol was added to the formulation and allowed to stir until uniform. Finally, water will be slowly added to the stirring formulation to achieve the final volume.
For the IP formulation the test article was added to the appropriate amount of ethanol and stirred until uniform. Next, the appropriate amount of tween-20 was added to the stirred formulation. Finally, the appropriate amount of saline was slowly added to the stirred formulation to achieve the final volume.
Animals were fasted the evening prior to dosing with food returned at 4 h postdose, and the animals weighed on the morning of dose administration.
IP doses were administered via injection to the intraperitoneal region. PO doses were delivered into the stomach via syringe and gavage tube.
Blood was collected from via direct jugular stick or from the tail vein. Blood samples were kept on ice until being centrifuged at 3200 RPM for 10 minutes at ˜5° C. within 1 h of collection. Plasma was split into 2 cryovials in approximately equal volumes (0.05 mLs) and stored at −20° C.±5° C. until shipment.

The test system of data set [4] is lipopolysaccharide (LPS)-induced inflammation. Nature of the data set: Anti-inflammatory activity in a rat LPS model (serum cytokines). In kind it is in vivo, Sprague Dawley rats. Conditions: PO QD x 4, LPS 5 mg/kg IP, 2 h after LPS. The method, then:
This assay was employed to determine the efficacies of CBG, compound 1, and compound 2 against lipopolysaccharide (LPS)-induced inflammation in Sprague Dawley rats.
Eight- to 10-week-old male rats were treated with CBG, Compound 1, and Compound 2, or a positive control (cyclosporin A) for four days prior to treatment with LPS. Twenty-eight (28) Sprague Dawley male rats, 8-10 weeks old, were used for this study. Animals were randomized by weight into one of 7 treatment groups as shown in Table 10 below and treated for 4 days with either vehicle control (Groups 1 and 2), Cyclosporin A (Neoral) (Group 3), CBG at 30 mg/kg (Group 4), Compound 1 at 31.5 mg/kg (Group 5), Compound 2 at 32.7 mg/kg (Group 6) or CBG at 30 mg/kg (intraperitoneal/IP; Group 7). Groups 1-6 were dosed for 4 days by oral gavage; group 7 was dosed for 4 days by IP injection. After the 4th injection, Groups 2-7 received a single IP injection of LPS at 5 mg/kg to induce inflammation. Body weight was recorded every other day starting on the day of or day prior to the first day of treatment. A terminal body weight was recorded. General health and clinical signs were recorded once daily. Blood was collected to isolate immune cells at 2 hours after the LPS injection. […]
Serum samples (N=82) were processed and shipped to Inotiv Boulder for analysis. […] The samples were analyzed for cytokine levels using the RECYTMAG-65K Luminex™ kit. […]

In general, Tmax refers to the time from dosing to the highest level.

SMILES strings stand for the structures. Entries after “also recorded” stand apart in the source; their conditions may differ. Like-named read-outs stand apart in the source and are kept apart here.

For the compound `C=C(C)[C@@H]1CCC(C)=C[C@H]1c1c(O)cc(CCCCC)cc1O` [CBD, cannabidiol], in the data set on PTZ-induced seizure, the “Latency to Clonic Seizure Event compared to PTZ alone” value is “did not yield a significantly different latency”, the “Latency to First Seizure Event compared to PTZ alone” value is on record as “did not result in a difference in latency to first seizure”, the “Latency to Tonic Seizure Event compared to PTZ alone” value was “did not yield a significantly different latency” and the “Percent of animals reaching Tonic-clonic Stage 6 compared to PTZ alone” value was “did not yield a significantly difference in proportion; also recorded: did not yield a significant difference in proportion”. Also, in the data set on PTZ-induced seizure, the “Racine scores over 5 minute intervals for 30 minutes compared to PTZ alone” value is reported as “did not yield a significant change in clinical score” and the “Survival Effects: mortality rate compared to the vehicle/PTZ group” value is “did not yield a significantly reduced mortality rate”. Also, in data set [1] (100 mg/kg, IP), the Tmax is 60 min.
On to `CCCCCc1cc(OC)c(C/C=C(\C)CCC=C(C)C)c(OC)c1` [Compound 2, (E)-2-(3,7-dimethylocta-2,6-dien-1-yl)-1,3-dimethoxy-5-pentylbenzene], for which, in data set [2] (Group 4 (Compound 1: 50 mg/kg PO)), the “small intestine gross score compared to vehicle” value is “trend in lower small intestine gross score”. Further, the “reduction of necrosis width, of vehicle” value in data set [2] (Group 5) is given as 99%. Moreover, in data set [2] (Group 5 & 6), the “histopathology scores vs vehicle and dexamethasone” value is “significantly lower”; the “necrosis width vs vehicle and dexamethasone” value is “significantly lower”. The “reduction of necrosis width, of vehicle” value in data set [2] (Group 6) was 96%. Further, in data set [2] (Groups 4-6), the “Histopathology scores vs vehicle (Group 2)” value is “lower than the vehicle” and the “necrosis width vs vehicle (Group 2)” value is given as “lower than the vehicle”. Moreover, in data set [2] (Groups 5-6 (Compound 1: 200 and 800 mg/kg PO)), the “small intestine gross score compared to vehicle” value is “significant reductions in gross score”. Besides, the “small intestine weight compared to vehicle” value in data set [2] (all three treatment groups (Groups 4-6), PO days 0-3) is recorded as “significantly lower”. In addition, the “body weight change from Study Day -3 (preventing weight loss)” value in data set [2] (all treatment groups (Groups 4-6), PO days 0-3, in comparison to dexamethasone (Compound 2: and vehicle)) is listed as “all trended towards or had significant differences in preventing weight loss”. In addition, the “glucuronidation / glucuronide formation in plasma (in words)” value in data set [3] is “completely blocked glucuronide formation”. Also, in data set [4], the “reduction of IL-1B and IFNy, performance relative to CBG” value is recorded as “equal to or better than CBG”.
With `C=C(C)[C@@H]1CCC(C)=C[C@H]1c1c(O)cc(CCCCC)cc1OC` [Compound 3, (1′R,2′R)-6-methoxy-5′-methyl-4-pentyl-2′-(prop-1-en-2-yl)-1′,2′,3′,4′-tetrahydro-[1,1′-biphenyl]-2-ol], the “reduction of IL-1B and IFNy, performance relative to CBG” value in data set [4] is listed as “equal to or better than CBG”. In addition, in the data set on PTZ-induced seizure, the “Latency to Clonic Seizure Event compared to PTZ alone” value was “did not yield a significantly different latency; also recorded: strong trend toward longer latency”, the “Latency to First Seizure Event compared to PTZ alone” value is given as “trended towards a longer latency”, the “Latency to Tonic Seizure Event compared to PTZ alone” value is recorded as “significantly longer latency” and the “Percent of animals reaching Tonic-clonic Stage 6 compared to PTZ alone” value is on record as “significantly lower proportion”. Besides, in the data set on PTZ-induced seizure, the “Racine scores over 5 minute intervals for 30 minutes compared to PTZ alone” value is “significant improvement in Racine scores” and the “Survival Effects: mortality rate compared to the vehicle/PTZ group” value is on record as “significantly reduced mortality rate”. In addition, in data set [1] (IP), the “Cmax, fold greater than CBD” value is given as 8 fold and the “plasma PK Area Under the Curve (AUC), fold greater than CBD” value is listed as “over 4 fold”. The Tmax in data set [1] (plasma, 100 mg/kg IP, read-out: TMax (converted)) was 30 min.
